Laboratory results as given in patent US7772383B2, “Chemical PCR: Compositions for enhancing polynucleotide amplification reactions” (The Trustees of Princeton University, priority 2002, dated 2010).

Assays:
Assay type in all cases: biochemical
[1] = tested on: bovine brain glycolipid transfer protein (GTP) cDNA (660 bp); test: PCR amplification of GTP cDNA with diol additives, standard cycling; conditions: for Potency / Effective range: GTP; for Potency: 95° C. denaturing, 72° C. extension, normalized maximum densitometric volume of target band: 1,5-Pentanediol = 1; for Effective range: concentration interval over which densitometric volume of target band is at least 50% of maximum volume
Protocol: (§1) Amplification reactions were carried out under the following general conditions. Those skilled in the art will appreciate, however, that to the extent that the conditions (set forth in this application) required for specific experiments described in this example were inconsistent with the following general conditions, limited exceptions to the following general conditions were made The general conditions were as follows: 10 Mm Tris-HCl (Ph 8.8), 50 Mm KCl, 1.5 Mm MgCl2, 0.01% (w/v) gelatin, 0.2 Um primers, 0.06 ng/ul template, 0.2 Mm each Dntp, 0.04 U/ul Taq polymerase. The templates used were bovine brain N-WASP cDNA (1518 bp), a 996 bp segment of human myeloid leukocyte c-jun cDNA, a 511 bp segment of human prostate-specific membrane antigen (PSM) cDNA, and bovine brain glycolipid transfer protein (GTP) cDNA (660 bp). cDNA synthesis was carried out using the FIRST-STRAND® RT-PCR kit from Stratagene on the respective mRNAs purchased from Clontech. All amplification reactions for gene were carried out using a single master batch of cDNA. Taq polymerase and dNTPs were obtained from Stratagene. Primers were obtained from Genosys. Primer melting temperatures (Tms) were calculated using the Genosys oligo calculator program. The sequences of the primers were as follows.
(§2) Polymerase chain reactions for the N-WASP gene were conducted on a ROBOCYCLER® Gradient 40 thermal cycler from Stratagene using 100 ul solutions in 600 ul thin-walled tubes. For expediency, amplification of c-jun, PSM and GTP was carried out in a ROBOCYCLER® Gradient 96 thermal cycler from Stratagene using 50 ul solutions in 200 ul thin-walled tubes. Prior to Taq polymerase addition, a hotstart protocol was carried out that consisted of an initial cycle of 95° C. for 5 minutes (11) to ensure complete first-strand separation, followed by a cycle of 54° C. for 5 minutes. Amplifications were run for 30 cycles. […] Extension was done at 72° C. for periods depending on target length: 2 minutes for N-WASP, 1.5 minutes for c-jun and GTP, and 1 minute for PSM. Annealings were carried out either at fixed concentrations of additives using temperature gradients of 38-56° C. for N-WASP and 44-58° C. for the other targets, or at varying concentrations of additives using fixed temperatures of 41° C. for N-WASP, 50° C. for c-jun and PSM, and 54° C. for GTP.
(§3) Amplification products were analyzed by agarose gel electrophoresis on 0.8% agarose gels in which 20 ul reaction products were loaded with 4 ul loading buffer. Gels were stained with ethidium bromide, visualized on a UV transilluminator (Fisher), and documented by photography. Densitometric quantitation of amplification products was carried out using IMAGE SCANNER® and IMAGE MASTER® software from Amersham Pharmacia. Background correction was done using the software's rolling disc method.
Investigations into the PCR enhancing capabilities of diol cosolvents were carried out using GTP as the primary template. […] The standard protocol for annealing temperature and concentration gradient screening was again followed. […] These cosolvents were thus omitted from further studies. The optimal annealing temperatures for the remaining compounds were: ethylene glycol, 1,2-propanediol, 1,3-propanediol and cis-1,2-cyclopentanediol—58° C.; 1,2-butanediol—54° C.; 1,3-butanediol and 1,4-butanediol—[…]; 2,4-pentanediol, 1,5-pentanediol, 1,6-hexanediol and MPD—56° C.

[2] = tested on: 511 bp segment of human prostate-specific membrane antigen (PSM) cDNA; test: PCR amplification of PSM cDNA with diol additives, standard cycling; conditions: PSM; for Specificity: best specificity (densitometric volume of target as percent of total volume) over the effective range; for Effective range: concentration interval over which densitometric volume of target is at least 50% of maximum; for Potency: normalized maximum densitometric volume of target band: 1,3-Butanediol = 1
Protocol: as §1, §2, §3
(§4) With PSM, 1,2-propanediol, 1,2-butanediol, 1,3-butanediol, 1,4-butanediol and glycerol were tested; with c-jun, ethylene glycol and 1,3-propanediol were also tested in addition to these compounds. […] The following additive concentrations were tested using these annealing temperatures: 1,2-propanediol—0.5, 0.8, 1.1, 1.4, 1.7 and 2.0M; 1,2-butanediol—0.1, 0.3, 0.5, 0.6, 0.7 and 0.8M; 1,3-butanediol—0.1, 0.3, 0.5, 0.6, 0.9, 1.1, 1.2M; 1,4-butanediol—0.1 to 1.1M in 0.2M intervals; 1,5-pentanediol—0.1-0.6M in 0.1M intervals; glycerol—0.5 to 1.9M in 0.2M intervals, and 2.2M.

[3] = tested on: 996 bp segment of human myeloid leukocyte c-jun cDNA; test: PCR amplification of c-jun cDNA with diol additives, standard cycling; conditions: c-jun; for Effective range: concentration interval over which densitometric volume of target band is at least 50% of maximum volume; for Potency: normalized maximum densitometric volume of target band: 1,5-Pentanediol = 1
Protocol: as §1, §2, §3, §4

Row | SMILES | Potency [1] | Effective range [1] | GTP Potency ([1]; comparative standard 95/55/72° C., 0.3 M, best result under conventional conditions, normalization reference) | Specificity [2] | Effective range [2] | Potency [2] | Effective range [3] | Potency [3]
1 | OCCCCCO [1,5-Pentanediol] | 1.00 | 0.16 to 0.47 M | 1.00 | 94% | 0.31 to 0.49 M | 0.54 | 0.17 to 0.45 M | 1.00
2 | CCC(O)CO (stereo not drawn) [1,2-Butanediol] | 0.57 | 0.08 to 0.62 M |  | 92% | 0.34 to 0.73 M | 0.42 | 0.27 to 0.74 M | 0.64
